How the values were obtained:
HSV-2 [1] = assay: Ocular herpes model, HSV-2 infection; format: in vivo, mice (BALB/cABom); details: for number of survivors of 10 infected animals: HSV-2, day 16 after infection; for number of survivors of 10 infected animals / Pathology index HSV-2 infection (cumulative): topical ophthalmic 2% by weight suspension 5x a day, day 0 to day 4; for Pathology index HSV-2 infection (cumulative): day 0 to day 16, 10 animals; for efficacy of topical treatment (eye drops), in words: ocular HSV infection, efficacy applies to HSV-2
Description: (§1) To form a 2% by weight suspension, the active ingredients are mixed with Liquifilm eyedrops (Allergan, Ettlingen, Germany) (1 ml containing polyvinyl alcohol 14 mg, and as excipient chlorobutanol ½ H2O 5.25 mg, sodium chloride) and sonified in a glass tube in an ultrasonic bath at 15° C. for 15 min.
(§2) 6-week old female mice, strain BALB/cABom (weight 19 g) are purchased from a commercial breeder (M&B A/S, Denmark) and infected with HSV one week later. The animals are anesthetized in a leakproof glass vessel with diethyl ether (Merck). For the ocular infection, the cornea of the right eye is lightly scratched three times horizontally and three times vertically with a sterile needle (0.4×20 mm). The cornea pretreated in this way is inoculated with 5 μl of virus suspension (5×10^7 pfu HSV-2G, 7.5×10^7 pfu HSV-lwalki). The infected animals are checked each day and examined for signs of an HSV infection (blepharitis, keratitis, encephalitis). The pathology index is set at 1 for affected animals, and the pathology index is set at 0 for symptom-free animals. The particular pathology index of the group on the particular day is calculated by summation for all the animals in the group. The cumulative pathology index is calculated by totalling the pathology indices on individual days. The infection leads to the death of 90-100% of untreated animals due to a generalized infection with prominent central nervous symptoms an average of between 5 and 8 days. Moribund animals are euthanized. The treatment takes place starting 3 h after the infection 5× a day for 5 days by instilling 5 μl of a 2% by weight active ingredient suspension in Liquifilm© eye drops (Allergan, Ettlingen, Germany) (1 ml containing polyvinyl alcohol 14 mg, and as excipient chlorobutanol ½ H2O 5.25 mg, sodium chloride) into the infected right eye of the animal.

HSV-1 = assay: Ocular herpes model, HSV-1 infection; format: in vivo, mice (BALB/cABom); details: for number of survivors of 10 infected animals: HSV-1, day 16 after infection; for number of survivors of 10 infected animals / Pathology index HSV-1 infection (cumulative): topical ophthalmic 2% by weight suspension 5x a day, day 0 to day 4; for Pathology index HSV-1 infection (cumulative): day 0 to day 16, 10 animals; for efficacy of topical treatment (eye drops), in words: ocular HSV infection, efficacy applies to HSV-1
Description: as §1, §2

HSV-2 [2] = assay: Zosteriform spread model, percutaneous HSV-2 infection; format: in vivo, hairless mice (C3H/TifBom-hr); details: for efficacy of topical treatment, in words: 2% by weight suspension in 30% isopropyl myristate, 70% ethanol; for Pathology index (cumulative): day 0 to day 21, 10 animals
Description: To form a 2% by weight suspension, the active ingredients are mixed with 30% by weight isopropyl myristate/70% by weight of ethanol and sonified in a glass tube in an ultrasonic bath at 15° C. for 15 min.
To produce the ointment preparation, wool alcohol ointment complying with DAB 9 is employed. The active ingredient is suspended in a molten mixture of 0.5 parts by weight of cetyl stearyl alcohol (quality complying with DAB 9), 6 parts by weight of wool wax alcohol (quality complying with DAB 9) and 93.5 parts by weight of white petrolatum (quality complying with DAB 9). The mixture is stirred while cooling to room temperature (about 21° C.).
To produce a so-called “PEG isogel” preparation, the active ingredient is suspended or dissolved in the melt a mixture of lower molecular weight polyethylene glycol (PEG) and higher molecular weight PEG.
A further gel preparation employed is a polyacrylate gel (so-called “carbogel”) which consists of 1 part by weight of Carbopol 974 P NF (manufacturer BF Goodrich, USA), […], 5 part by weight of 5% by weight (m/m) sodium hydroxide solution and 89 parts by weight of water. The preparation is produced by rubbing the Carbopol with the isopropanol, adding the active ingredient, and dispersing the mixture in water. The sodium hydroxide solution is added stepwise with stirring. A gel is formed.
6-week old female hairless mice (C3H/TifBom-hr) are purchased from a commercial breeder (M&B A/S, Denmark) and infected with HSV one week later. The animals are anesthetized with diethyl ether (Merck) in a leakproof glass vessel. For the dermal infection, the skin on the right flank or in the neck region of the animal is scratched 10× crosswise with a sterile needle (0.6×25 mm). The skin pretreated in this way is inoculated with 10 μl of virus suspension (1×10^6 pfu HSV-2G; 1.5×10^6 p fu HSV-lwalki). The animals are inspected each day, and the pathology index is determined by means of the following scale: 0: no visible signs of infection, 1: blistering, 2: slight spread in the dermatome (shingles), 3: large areas affected (shingles), 4: confluent shingles bands, 5: paralysis of the extremities, 6: death. The particular pathology index of the group on the particular day is calculated by forming the average for all the animals in the group. The cumulative pathology index is calculated by totalling the pathology indices for individual days. The infection leads to death of 90-100% of the untreated animals due to a generalized infection with prominent central nervous symptoms an average of between 5 and 8 days. Moribund animals are euthanized. […]

[3] = HSV-2, right flank, 2% by weight suspension in 30% isopropyl myristate/70% ethanol on skin 2x a day, day 0 to day 4

Nc1nc2c(ncn2COCCO)c(=O)[nH]1 [Aciclovir, reference compound]
number of survivors of 10 infected animals (HSV-2 [1]): 1 | Pathology index HSV-2 infection (cumulative) (HSV-2 [1]): 90 | number of survivors of 10 infected animals (HSV-1): 7 | Pathology index HSV-1 infection (cumulative) (HSV-1): 33

Cc1nc(N(C)C(=O)Cc2ccc(-c3cc(F)ccc3F)cc2)sc1S(N)(=O)=O [N-[5-(Aminosulfonyl)-4-methyl-1,3-thiazol-2-yl]-2-(2′,5′-difluoro-1,1′-biphenyl-4-yl)-N-methylacetamide]
number of survivors of 10 infected animals (HSV-2 [1]): 4 | Pathology index HSV-2 infection (cumulative) (HSV-2 [1]): 42 | efficacy of topical treatment (eye drops), in words (HSV-2 [1]): extensive efficacy | number of survivors of 10 infected animals (HSV-1): 10 | Pathology index HSV-1 infection (cumulative) (HSV-1): 0 | efficacy of topical treatment (eye drops), in words (HSV-1): extensive efficacy

Cc1nc(N(C)C(=O)Cc2ccc(-c3ccccc3F)cc2)sc1S(N)(=O)=O [N-[5-(Aminosulfonyl)-4-methyl-1,3-thiazol-2-yl]-2-(2′-fluoro[1,1′-biphenyl]-4-yl)-N-methylacetamide]
efficacy of topical treatment, in words (HSV-2 [2]; HSV-2, right flank): extensive efficacy | Pathology index (cumulative) (HSV-2 [2]; [3]): 0.2

Cc1nc(N(C)C(=O)Cc2ccc(-c3ccccn3)cc2)sc1S(N)(=O)=O [N-[5-(Aminosulfonyl)-4-methyl-1,3-thiazol-2-yl]-N-methyl-2-[4-(2-pyridyl)phenyl]acetamide]
efficacy of topical treatment, in words (HSV-2 [2]; HSV-2, right flank): extensive efficacy | Pathology index (cumulative) (HSV-2 [2]; [3]): 0.3 | effect of short treatment on infection, in words (HSV-2 [2]; HSV-2G, neck region, 2% by weight PEG isogel 2x a day for 2 days (4 treatments)): completely suppressed | Pathology index (cumulative) (HSV-2 [2]; HSV-2G, neck region, 2% by weight PEG isogel on skin 2x a day, day 0 to day 1): 0.3 | efficacy of topical treatment with various formulations, in words (HSV-2 [2]; HSV-2G, neck region, formulations with 3% by weight active ingredient): extensive efficacy | number of survivors of 10 infected animals (HSV-2 [1]): 9 | Pathology index HSV-2 infection (cumulative) (HSV-2 [1]): 7 | efficacy of topical treatment (eye drops), in words (HSV-2 [1]): extensive efficacy | number of survivors of 10 infected animals (HSV-1): 10 | Pathology index HSV-1 infection (cumulative) (HSV-1): 0 | efficacy of topical treatment (eye drops), in words (HSV-1): extensive efficacy

Cc1nc(N(C)C(=O)Cc2ccc(-c3cccc(F)c3)cc2)sc1S(N)(=O)=O [N-[5-(aminosulfonyl)-4-methyl-1,3-thiazol-2-yl]-2-(3′-fluoro-1,1′-biphenyl-4-yl)-N-methylacetamide]
efficacy of topical treatment, in words (HSV-2 [2]; HSV-2, right flank): extensive efficacy | Pathology index (cumulative) (HSV-2 [2]; [3]): 0.3

Cc1nc(N(C)C(=O)Cc2ccc(-c3ccccc3)cc2)sc1S(N)(=O)=O [N-[5-Aminosulfonyl)-4-methyl-1,3-thiazol-2-yl]-2-[1,1′-biphenyl]-4-yl-N-methylacetamide]
efficacy of topical treatment, in words (HSV-2 [2]; HSV-2, right flank): extensive efficacy | Pathology index (cumulative) (HSV-2 [2]; [3]): 7.9
